How the values were obtained:
Factor XIIIa = target: T1, Factor XIIIa (Homo sapiens, UniProt P00488); assay: Factor XIIIa inhibitor assay (incorporation of ^14 C-putrescine into casein catalyzed by Factor XIIIa); format: biochemical; conditions: read-out: Percent Inhibition
T1 construct: from tissue; host or cells: human plasma
T1 sequence (P00488 39-732 limits assumed): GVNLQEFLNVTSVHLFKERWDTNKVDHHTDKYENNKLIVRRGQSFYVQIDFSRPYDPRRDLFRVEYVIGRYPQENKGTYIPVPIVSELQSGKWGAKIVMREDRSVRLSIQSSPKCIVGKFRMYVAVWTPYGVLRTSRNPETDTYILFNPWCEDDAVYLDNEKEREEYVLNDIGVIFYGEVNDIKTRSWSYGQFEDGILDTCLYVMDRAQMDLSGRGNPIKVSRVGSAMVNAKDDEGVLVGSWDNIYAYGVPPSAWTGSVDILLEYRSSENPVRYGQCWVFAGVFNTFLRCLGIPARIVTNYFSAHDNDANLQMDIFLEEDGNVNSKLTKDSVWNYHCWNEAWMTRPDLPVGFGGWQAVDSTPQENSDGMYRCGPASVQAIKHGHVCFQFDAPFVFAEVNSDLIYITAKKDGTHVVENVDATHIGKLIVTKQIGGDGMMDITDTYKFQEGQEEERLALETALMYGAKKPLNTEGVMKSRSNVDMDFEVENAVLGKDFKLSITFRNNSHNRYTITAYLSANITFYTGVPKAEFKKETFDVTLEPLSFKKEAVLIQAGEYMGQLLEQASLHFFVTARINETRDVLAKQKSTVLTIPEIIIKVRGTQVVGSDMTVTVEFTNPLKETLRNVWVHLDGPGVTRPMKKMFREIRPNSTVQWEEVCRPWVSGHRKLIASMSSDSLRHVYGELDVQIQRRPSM
Protocol: The Factor XIIIa inhibitor assay is based on the incorporation of ^14 C-putrescine into casein catalyzed by Factor XIIIa. The assay is carried out employing the procedure described in Methods in Enzymology, Vol. 45, Ch 15., pages 177-191 (1976) and using Factor XIII (F XIII) isolated from human plasma. The procedure is summarized briefly and schematically illustrated as follows: [drawing 16]
Factor XIII assay mixtures are prepared by adding stepwise, appropriate prepared solutions of thrombin and dithiothreitol (DTT) to a mixture comprising Factor XIII in glycerol/water and tris(hydroxymethyl)aminomethane hydrochloride (Tris.cndot.HCl). To a portion of the mixture is added calcium chloride as source of calcium ions required for enzyme activity and to the remaining mixture is added instead of calcium ions ethylenediaminetetracetic acid (EDTA) which serves as a blank for background.
A substrate mixture is prepared from ^14 C-putrescine and […].
The assay tubes and control tubes are charged with the substrate mixture and incubated at 37° C. for 220 minutes. Samples are withdrawn from each tube, spotted onto a filter disk which is then immersed in ice cold trichloroacetic acid solution to precipitate the casein on the filter. The filter is then washed to remove unincorporated or free ^14 C-putrescine and after drying is counted for ^14 C-putrescine incorporated to casein from which percent activity and/or inhibition can be calculated.

blood clots = assay: in vitro clot lysis assay (TPA-catalyzed lysis of ^125 I-fibrin labelled clot); format: biochemical; conditions: 200 μM cerulenin, buffer pH 7.5
Protocol: In the assay, whole blood or plasma is charged with ^125 I-fibrinogen. Thrombin is added to initiate clot formation and subsequently incubated for 2 hours to complete the cross-linking by endogenous Factor XIII. Factor XIIIa inhibitor is added prior to clot initiation or at various times during the 2-hour incubation. At the end of this period, the labelled clot is washed and lysis is initiated by exogenous tissue plasminogen activator (TPA). Exogenous plasminogen is employed in some experiments. Endogenous plasminogen is used for others. Clot dissolution as a function of time is monitored by the release of solubilized ^125 I-fibrin-derived fragments.
In FIGS. 1 and 2, the open symbols indicate absence of cerulenin and the closed symbols indicate the presence of 200μM cerulenin at the time of clot formation. Clot lysis is conducted in buffer, pH 7.5; 5 ng/mL TPA represents approximate physiologic concentration. 50 to […] represents pharmacologic concentration range. […] FIG. 2 studies employed glu-plasminogen levels at approximately 10 percent physiologic level (12μ/mL)

Row | inhibition at 62 µM (Factor XIIIa; 6.2 × 10^-5 M) [%] | inhibition at 6.2 µM (Factor XIIIa; 6.2 × 10^-6 M) [%] | inhibition at 0.62 µM (Factor XIIIa; 6.2 × 10^-7 M) [%] | inhibition at 13 µM (Factor XIIIa; 1.3 × 10^-5 M) [%] | inhibition at 1.5 µM (Factor XIIIa; 1.5 × 10^-6 M) [%] | inhibition at 0.17 µM (Factor XIIIa; 1.7 × 10^-7 M) [%] | inhibition at 4.5 µM (Factor XIIIa; 4.5 × 10^-6 M) [%] | inhibition at 0.5 µM (Factor XIIIa; 5 × 10^-7 M) [%] | Compound | lysis rates (blood clots; 12 μg/mL exogenous glu-plasminogen, TPA, FIG. 2) | rates and extents of lysis (blood clots; no exogenous plasminogen, physiological and pharmacological levels of TPA, FIG. 1)
1 | 100 | 64 | 22 | – | – | – | – | – | C/C=C/C/C=C/CCC(=O)[C@H]1O[C@H]1C(N)=O [Cerulenin, (2R,3S)-2,3-epoxy-4-oxo-7E,10E-dodecadienamide] | lysis rates were further enhanced | enhanced rates and extents of lysis
2 | – | – | – | 91 | 52 | 9 | 78 | 19 | O=C(O)C=Cc1nc2ccccc2[nH]1 [3-(Benzimidazol-2-yl)-acrylic acid, 3-(benzimidazol-2-yl)acrylic acid] | – | –

— patent US4968494A, “Methods and compositions for thrombolytic therapy” (Merck & Co., Inc., priority 1990, dated 1990)
